# Reference: patent publication US12187723B2 (BRISTOL-MYERS SQUIBB COMPANY, priority 2019, dated 2025)
# pIC50: −log10 of the molar value.
# How the values were obtained:
# human TLR7 = target: T1, human TLR7 (Homo sapiens, UniProt Q9NYK1); test: TLR7 inhibition reporter assay (HEK-Blue SEAP); format: cell-based; details: HEK-Blue cells overexpressing human TLR7, gardiquimod 7.5 μM, 22 hour incubation
# T1 construct: host or cells: HEK-Blue cells
# T1 sequence (Q9NYK1 27-1049): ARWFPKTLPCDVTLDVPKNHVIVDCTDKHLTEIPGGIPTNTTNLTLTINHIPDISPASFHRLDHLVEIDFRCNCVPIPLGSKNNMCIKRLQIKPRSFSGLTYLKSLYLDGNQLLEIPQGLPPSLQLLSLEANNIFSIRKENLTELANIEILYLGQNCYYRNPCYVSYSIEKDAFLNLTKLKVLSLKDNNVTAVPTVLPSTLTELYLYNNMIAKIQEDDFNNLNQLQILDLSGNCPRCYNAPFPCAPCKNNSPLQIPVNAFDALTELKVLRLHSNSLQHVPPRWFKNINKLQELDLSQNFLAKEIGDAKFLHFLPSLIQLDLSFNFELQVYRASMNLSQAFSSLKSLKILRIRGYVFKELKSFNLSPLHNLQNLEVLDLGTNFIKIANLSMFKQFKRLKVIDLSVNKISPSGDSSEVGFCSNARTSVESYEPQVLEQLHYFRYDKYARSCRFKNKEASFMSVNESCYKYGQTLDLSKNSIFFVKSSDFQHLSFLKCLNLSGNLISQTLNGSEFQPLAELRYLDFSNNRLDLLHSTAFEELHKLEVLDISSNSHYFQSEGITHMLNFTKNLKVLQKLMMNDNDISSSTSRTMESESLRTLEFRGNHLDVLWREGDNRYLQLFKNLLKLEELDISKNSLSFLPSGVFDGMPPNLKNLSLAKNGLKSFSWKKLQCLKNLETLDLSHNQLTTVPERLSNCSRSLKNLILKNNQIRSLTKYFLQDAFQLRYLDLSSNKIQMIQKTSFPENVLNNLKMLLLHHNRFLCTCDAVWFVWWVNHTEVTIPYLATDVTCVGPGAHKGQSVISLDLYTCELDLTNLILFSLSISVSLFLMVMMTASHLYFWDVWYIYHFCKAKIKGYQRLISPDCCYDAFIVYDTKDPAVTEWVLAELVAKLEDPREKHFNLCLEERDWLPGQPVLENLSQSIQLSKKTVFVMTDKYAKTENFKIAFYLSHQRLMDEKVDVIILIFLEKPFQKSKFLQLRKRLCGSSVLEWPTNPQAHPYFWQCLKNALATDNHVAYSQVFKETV
# How it was run: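 SEAP readout via HEK-Blue Detection medium after 22 h at 37 °C, 5% CO2 defines inhibition, normalized between agonist-plus-DMSO wells and a reference inhibitor. Compound dose range 0.05 nM–50 μM; TLR7 cells at 15,000/well (gardiquimod), TLR8 at 20,000/well (R848).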
# human TLR8 = target: T2, human TLR8 (Homo sapiens, UniProt Q9NR97); test: TLR8 inhibition reporter assay (HEK-Blue SEAP); format: cell-based; details: HEK-Blue cells overexpressing human TLR8, R848 15.9 μM, 22 hour incubation
# T2 construct: host or cells: HEK-Blue cells
# T2 sequence (Q9NR97 27-1041): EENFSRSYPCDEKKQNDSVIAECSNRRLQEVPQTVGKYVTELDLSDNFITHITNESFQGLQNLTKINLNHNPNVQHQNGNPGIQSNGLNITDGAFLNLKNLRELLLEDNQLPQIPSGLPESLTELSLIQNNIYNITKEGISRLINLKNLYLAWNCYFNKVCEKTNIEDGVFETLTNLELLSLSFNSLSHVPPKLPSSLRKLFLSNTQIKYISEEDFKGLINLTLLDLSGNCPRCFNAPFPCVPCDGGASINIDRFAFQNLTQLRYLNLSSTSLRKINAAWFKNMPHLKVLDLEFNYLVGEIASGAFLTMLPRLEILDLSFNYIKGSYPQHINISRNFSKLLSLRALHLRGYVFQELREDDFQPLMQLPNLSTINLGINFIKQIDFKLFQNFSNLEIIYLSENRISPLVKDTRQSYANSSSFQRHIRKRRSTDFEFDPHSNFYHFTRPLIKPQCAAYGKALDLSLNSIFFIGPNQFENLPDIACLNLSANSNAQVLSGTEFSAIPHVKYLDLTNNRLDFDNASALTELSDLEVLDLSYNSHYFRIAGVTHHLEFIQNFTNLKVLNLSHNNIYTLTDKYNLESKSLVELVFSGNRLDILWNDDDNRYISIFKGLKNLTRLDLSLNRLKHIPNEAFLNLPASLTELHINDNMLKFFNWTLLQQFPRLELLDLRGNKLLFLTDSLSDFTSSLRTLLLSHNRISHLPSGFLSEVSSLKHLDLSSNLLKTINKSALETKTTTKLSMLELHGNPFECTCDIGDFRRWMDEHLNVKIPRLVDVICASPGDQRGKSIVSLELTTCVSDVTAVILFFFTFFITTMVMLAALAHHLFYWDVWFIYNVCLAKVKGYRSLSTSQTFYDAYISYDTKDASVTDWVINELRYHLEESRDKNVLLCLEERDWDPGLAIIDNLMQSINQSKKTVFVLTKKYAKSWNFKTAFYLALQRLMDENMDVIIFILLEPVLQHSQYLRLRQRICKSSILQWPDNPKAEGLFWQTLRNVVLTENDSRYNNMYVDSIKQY
# How it was run: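 HEK-Blue cells overexpressing human TLR7, TLR8 or TLR9 carry a SEAP reporter driven by NF-κB/AP-1 sites. Compounds (0.05 nM–50 μM) were preincubated 30 min at room temperature, then cells were stimulated with gardiquimod 7.5 μM (TLR7), R848 15.9 μM (TLR8) or ODN2006 5 nM (TLR9) for 22 h at 37 °C.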
Compound,pIC50 (human TLR7),pIC50 (human TLR8)
"COc1cc(-c2cc3[nH]c(=O)n(C4CCC(N5CCNC(=O)C5)CC4)c3cc2C(C)C)cn2ncnc12 (single isomer, unassigned) [Example 233, 6-isopropyl-5-(8-methoxy-[1,2,4]triazolo[1,5-a]pyridin-6-yl)-1-(4-(3-oxopiperazin-1-yl)cyclohexyl)-1,3-dihydro-2H-benzo[d]imidazol-2-one]",7.96,8.72
"COc1cc(-c2cc3[nH]c(=O)n([C@H]4CC[C@@H](NCC5CCOCC5)CC4)c3cc2C(C)C)cn2ncnc12 [Example 196, 6-isopropyl-5-(8-methoxy-[1,2,4]triazolo[1,5-a]pyridin-6-yl)-1-((1s,4s)-4-(((tetrahydro-2H-pyran-4-yl)methyl)amino)cyclohexyl)-1,3-dihydro-2H-benzo[d]imidazol-2-one]",8.39,10.30
"Cc1cc2c(cc1-c1cc(C)c3ncnn3c1)[nH]c(=O)n2[C@@H]1CCCN(C(C)C)C1 [Example 17, (R)-1-(1-isopropylpiperidin-3-yl)-6-methyl-5-(8-methyl-[1,2,4]triazolo[1,5-a]pyridin-6-yl)-1,3-dihydro-2H-benzo[d]imidazol-2-one]",7.88,7.84
